The test system of one series is E. faecalis ATCC-29212. Description: MIC determination, larger panel. Format: cell-based. The conditions noted are these: Enterococcus faecalis, ATCC29212, read-out: MIC E. faecalis.
Another series relates to A. baumannii DSM-30008. Description: MIC determination, larger panel. The class given is cell-based. The conditions noted are these: Acinetobacter baumannii, DSM30008, read-out: MIC A. baumannii, DSM-30008.
A further series relates to E. coli WT-3. Description: MIC determination, larger panel. The class given is cell-based. The conditions noted are these: Escherichia coli, WT3, read-out: MIC E. coli WT-3.
The next series has as its system E. aerogenes DSM-30053. Description: MIC determination, larger panel. The class given is cell-based, Enterobacter aerogenes. The conditions noted are these: Klebsiella aerogenes, DSM30053, read-out: MIC E. aerogenes.
The test system of the next series is E. cloacae DSM-30054. Description: MIC determination, larger panel. Format: cell-based. The conditions noted are these: Enterobacter cloacae, DSM30054, read-out: MIC E. cloacae.
For series [1], the system named is P. aeruginosa ESBL 1 DSM-24600. Description: MIC determination, larger panel. The class given is cell-based. The conditions noted are these: Pseudomonas aeruginosa, DSM24600, read-out: MIC P. aeruginosa ESBL 1.
Series [2] deals with P. aeruginosa ESBL 2 DSM-46316. Description: MIC determination, larger panel. Format: cell-based. The conditions noted are these: Pseudomonas aeruginosa, DSM46316, read-out: MIC P. aeruginosa ESBL 2.
The next series has as its system K. pneumoniae DSM-30104. Description: MIC determination, larger panel. The class given is cell-based. The conditions noted are these: Klebsiella pneumoniae, DSM30104, read-out: MIC K. pneumoniae.
A further series deals with S. marcescens DSM-30121. Description: MIC determination, larger panel. Format: cell-based. The conditions noted are these: Serratia marcescens, DSM30121, read-out: MIC S. marcescens.
The subject of the next series is P. mirabilis DSM-4479. Description: MIC determination, larger panel. Format: cell-based. The conditions noted are these: Proteus mirabilis, DSM4479, read-out: MIC P. mirabilis.
Series [3] is described as follows: Single dosing pharmacokinetic study. The conditions noted are these: 5 mg/kg, plasma. The class given is in vivo, male CD-1 outbred mice.
Another series can be described thus: In vivo tolerance study. Details: species or system male CD-1 mice.
Series [4] can be described thus: Neutropenic thigh infection model, s.c. and i.v. administration. Format: in vivo, neutropenic CD-1 mice. The conditions noted are these: male, CD-1, mouse, muscle, other: intravenous then subcutaneous.
For the next series, the system named is E. coli strain ATCC25922. The description is as above. The conditions noted are these: 24 h after infection. Format: in vivo, neutropenic CD-1 mice.
For the next series, the system named is E. coli ATCC25922. Description: Neutropenic murine thigh infection model, i.v. administration. Format: in vivo, male ICR mice.
The next series has as its target E. coli gyrase (Escherichia coli, UniProt P0AES4). Description: DNA gyrase supercoiling assay, method b. The class given is biochemical. The conditions noted are these: compared to 22.
The next series has as its system P. dispersa. Description: MIC against the AlbD producer. The class given is cell-based. The conditions noted are these: Pantoea dispersa, read-out: MIC P. dispersa.

Molecules are shown by their SMILES. Values after ≈ are worked out from the molar mass of the structure shown. Some results are limits rather than exact numbers.

This note sets out measurements from paper PMC8148378 (Chemical Science, 2019).

Chain of E. coli gyrase (P0AES4 whole entry): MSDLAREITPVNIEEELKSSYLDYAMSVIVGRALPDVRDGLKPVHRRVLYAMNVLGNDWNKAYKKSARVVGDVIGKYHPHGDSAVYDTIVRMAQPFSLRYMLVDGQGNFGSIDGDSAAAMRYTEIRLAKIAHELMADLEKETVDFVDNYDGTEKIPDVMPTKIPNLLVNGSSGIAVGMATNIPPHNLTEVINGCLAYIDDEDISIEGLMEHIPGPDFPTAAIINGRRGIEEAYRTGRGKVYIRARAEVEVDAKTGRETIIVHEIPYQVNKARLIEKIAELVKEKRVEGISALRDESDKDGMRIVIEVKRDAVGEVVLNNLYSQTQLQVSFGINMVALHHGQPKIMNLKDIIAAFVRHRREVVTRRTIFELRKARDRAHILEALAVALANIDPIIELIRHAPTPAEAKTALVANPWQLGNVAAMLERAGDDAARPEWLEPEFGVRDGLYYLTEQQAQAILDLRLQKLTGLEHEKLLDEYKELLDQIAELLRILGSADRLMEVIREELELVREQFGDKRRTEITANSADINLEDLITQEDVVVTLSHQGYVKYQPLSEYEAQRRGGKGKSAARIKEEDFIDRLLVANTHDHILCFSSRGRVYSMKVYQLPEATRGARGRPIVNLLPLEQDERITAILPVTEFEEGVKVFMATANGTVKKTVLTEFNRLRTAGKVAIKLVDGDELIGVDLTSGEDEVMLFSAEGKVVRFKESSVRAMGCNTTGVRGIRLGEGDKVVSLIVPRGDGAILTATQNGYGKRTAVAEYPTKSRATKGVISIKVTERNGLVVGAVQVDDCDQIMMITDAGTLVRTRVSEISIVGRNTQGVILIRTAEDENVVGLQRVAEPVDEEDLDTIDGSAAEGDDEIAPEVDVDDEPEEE

Consider `CC(C)Oc1c(NC(=O)c2ccc(NC(=O)[C@H](CC(N)=O)NC(=O)c3ccc(NC(=O)c4ccc(C#N)cc4)cc3)cc2)ccc(C(=O)Nc2ccc(C(=O)O)cc2)c1O` [Compound 22], for which the MIC is 0.5 µg/mL (≈ 0.616 µM) with E. faecalis ATCC-29212; 1 µg/mL (≈ 1.23 µM) in the series with A. baumannii DSM-30008; 0.25 µg/mL (≈ 0.308 µM) in the series with E. coli WT-3; 0.06 µg/mL (≈ 0.0739 µM) with E. aerogenes DSM-30053; 0.25 µg/mL (≈ 0.308 µM) with E. cloacae DSM-30054; 4 µg/mL (≈ 4.93 µM) in series [1]. For the same compound, the minimal inhibitory concentration (MIC) was 4 µg/mL (≈ 4.93 µM) in series [2], 0.5 µg/mL (≈ 0.616 µM) in the series on K. pneumoniae DSM-30104, over 64 µg/mL in the series with S. marcescens DSM-30121 and over 64 µg/mL with P. mirabilis DSM-4479. The “V/F (volume of distribution)” value in series [3] (i.v.) was found to be 3.5 L/kg. The AUC in series [3] (male, CD-1, mouse, iv, area under the curve (AUC), 5 mg kg^−1, plasma) is about 2000 ng·h/mL. Besides, the results for the adverse effects entry in “In vivo tolerance study” (5 mg kg^−1 i.v. four times every 6 hours (20 mg kg^−1 per day)), in “In vivo tolerance study” (10 mg kg^−1 i.v. four times every 6 hours (40 mg kg^−1 per day)) and in “In vivo tolerance study” (20 mg kg^−1 i.v. four times every 6 hours (80 mg kg^−1 per day)) were “no adverse effect”, “no adverse effect” and “one animal in the group treated at 20 mg kg^−1 showed adverse effects”, respectively. This compound showed a concentration at 24 h in series [4] of about 100 ng/mL. For the same compound, in the series with E. coli strain ATCC25922, the “reduction of the bacterial load in lung” value was determined as 3 log units. In addition, in the series on E. coli strain ATCC25922 (all dosing groups, compared to vehicle-treated animals), the “bacterial load in kidney” value was “complete bacterial clearance”. In addition, the “Log10 variation from vehicle control” value is recorded as −3.97 CFU/g in the series on E. coli ATCC25922 (20mg/kg/day i.v.), −5.32 CFU/g in the series on E. coli ATCC25922 (40mg/kg/day i.v.) and −4.89 CFU/g in the series with E. coli ATCC25922 (50mg/kg/day i.v.).
As to `CC(C)Oc1c(-n2cc(-c3ccc(NC(=O)C(CC(N)=O)NC(=O)c4ccc(NC(=O)c5ccc(C#N)cc5)cc4)cc3)nn2)ccc(C(=O)Nc2ccc(C(=O)O)cc2)c1O` (stereo not drawn) [Compound 61], on E. coli gyrase, the “fold decrease of gyrase inhibition” value was “ca. 20 fold”. Also, the MIC is 16 µg/mL (≈ 19.1 µM) with E. faecalis ATCC-29212; 8 µg/mL (≈ 9.57 µM) with A. baumannii DSM-30008; 16 µg/mL (≈ 19.1 µM) with E. coli WT-3; 1 µg/mL (≈ 1.2 µM) with E. aerogenes DSM-30053; over 64 µg/mL in the series on E. cloacae DSM-30054; 16 µg/mL (≈ 19.1 µM) in series [1]. For the same compound, the MIC in series [2] is 16 µg/mL (≈ 19.1 µM); in the series on K. pneumoniae DSM-30104, over 64 µg/mL; in the series on S. marcescens DSM-30121, over 64 µg/mL; in the series on P. mirabilis DSM-4479, 16 µg/mL (≈ 19.1 µM); with P. dispersa, 1 µg/mL (≈ 1.2 µM).

Broadly, the MIC is the least concentration at which growth counts as inhibited. As usually defined, the AUC is concentration integrated over time. Lower therefore signals less exposure.
